From US12590124B2, “Peptide with neutralizing activity against severe acute respiratory syndrome coronavirus 2” (CAREGEN CO, LTD., priority 2020, dated 2026)
Where no end group is shown, it is not given here.

tested on: SARS-CoV-2; conditions: 1 h, 2.5 mM

| Substance | Inhibition rate |
| --- | --- |
| KFNRRHH [SEQ ID NO: 2, KFNRRHH] | 51% |
| KYLLVHRPYYRR [SEQ ID NO: 3, KYLLVHRPYYRR] | 98% |
| RSYMTTHHEQF [SEQ ID NO: 1, RSYMTTHHEQF] | 21% |
| WVPYQARVPYPR [SEQ ID NO: 4, WVPYQARVPYPR] | 55% |

same assay, conditions: 1 h, 10 mM

| Substance | Inhibition rate |
| --- | --- |
| KFNRRHH [SEQ ID NO: 2, KFNRRHH] | 96% |
| KYLLVHRPYYRR [SEQ ID NO: 3, KYLLVHRPYYRR] | 98% |
| RSYMTTHHEQF [SEQ ID NO: 1, RSYMTTHHEQF] | 100% |
| WVPYQARVPYPR [SEQ ID NO: 4, WVPYQARVPYPR] | 98% |
